Like-named read-outs stand apart in the source and are kept apart here.
Key:
[1] = in vitro; conditions: human, Caco-2
Protocol: Caco-2 cells, a human colon adenocarcinoma cell line, were grown as monolayers for 21 days in Dulbecco's Modified Eagle's medium (1X) containing 10% fetal bovine serum, 1% non-essential amino acid solution, 1% penicillin-streptomycin and 2% glutamine at 37° C. in an atmosphere of 5% CO2 and 90% relative humidity. Caco-2 cells from passage numbers of 51 to 52 were seeded on permeable polycarbonate inserts (1 cm^2, 0.4 μm pore size) in 12 Transwell plates at a density of 80,000 cells/cm^2. The inserts were fed with media every other day until they were used for experiments 21 days after the initial seeding. The integrity of the cell monolayers was evaluated by measuring the transepithelial electrical resistance (TEER) values before the study using a Millicell®-ERS meter (Millipore Corp., Bedford, Mass.) with chopstick electrodes. […] The cell monolayers were washed twice with PBS prior to the transport experiments. After the wash, the plates were incubated for 30 min at 37° C., and the integrity of the cell monolayers was evaluated by measurement of TEER. The cell inserts were used in transport experiments when the TEER values reached >300 Ωcm^2.
The insert was moved to a well containing fresh PBS every 10 min for 40 min.
Papp was calculated according to the following equation: […]
The percent enhancement ratio, ER(%), for the Papp was calculated from the formula, […]

[2] = test system: Caco-2 cell monolayers; conditions: ZOT 0.22 to 0.89×10^−10 mol/ml, across Caco-2 cell monolayers; cited from earlier work
[3] = biological target: T1, protease activated receptor-2 (PAR-2) receptor (Mus musculus, UniProt P55086); conditions: intracolonic infusion of a 5 μg dose; cited from earlier work
T1 construct: Intracolonic infusion of a 5 μg dose of the PAR-2 agonist, SLIGRL
T1 sequence (P55086 26-399): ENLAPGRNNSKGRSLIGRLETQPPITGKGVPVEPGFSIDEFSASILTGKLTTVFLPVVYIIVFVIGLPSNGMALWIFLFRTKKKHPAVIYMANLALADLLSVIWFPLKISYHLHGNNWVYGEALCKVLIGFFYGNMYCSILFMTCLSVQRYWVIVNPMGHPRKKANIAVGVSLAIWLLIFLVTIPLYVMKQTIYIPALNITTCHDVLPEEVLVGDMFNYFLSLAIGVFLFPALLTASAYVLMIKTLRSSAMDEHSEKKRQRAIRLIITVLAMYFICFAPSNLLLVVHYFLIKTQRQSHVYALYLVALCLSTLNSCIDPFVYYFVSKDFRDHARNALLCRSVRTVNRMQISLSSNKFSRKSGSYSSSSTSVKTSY

[4] = Intra-nasal administration of salmon calcitonin (sCT) with or without AT1002, plasma sCT by LC-MS; assay type: in vivo, Sprague-Dawley rats; conditions: for Tmax: 15 mg/kg
Protocol: Jugular cannulated Sprague-Dawley rats randomly received formulations of salmon calcitonin. The formulations administered intra-nasally to rats were dextrose solution of sCT (15 mg/kg) with or without various doses of AT1002 (2, 5, and 10 mg/kg). Doses were then slowly administered intra-nasally with a volume dose of 400 μl kg rat. Blood samples were drawn via the jugular cannula at each time point, and were deproteinized by the addition of acetonitrile. The concentration of sCT in the plasma was determined by LC-MS.

[5] = Intranasal administration of [3H]-AZT or [3H]-saquinavir with AT1002, uptake into blood plasma
Protocol: Blood samples (250 μl) were drawn into heparinized syringes at 10 or 15 min into polypropylene tubes, centrifuged (13,000 rpm for 10 min) immediately and plasma was obtained. Scintillation cocktail was added and samples were analyzed for radioactivity by Beckman Coulter LS 6500 multi-purpose Scintillation counter.
In a volume of 20 μl, 120 μCi/kg of [^3H]-AZT was administered to FVB mice of 20-25 g each. Other FVB mice received the same amount of AZT administered in the presence of AT1002(2 mg/kg). Blood samples were taken at 10 or 15 minutes.
[hu 3H]-Saquinavir (120 μCi/kg) was administered in a 20 μl volume intranasally to FVB mice in the absence or presence of AT1002 (5 mg/kg).

[6] = Intranasal administration of [14C] PEG4000 or [14C] inulin with/without AT1002, plasma concentration; assay type: in vivo, Sprague-Dawley rats; conditions: inulin with AT1002 10 mg/kg, p<0.05
Description: Male Sprague-Dawley rats cannulated in the jugular vein were randomly assigned to receive radiolabelled paracellular markers, [^14C] PEG4000 or [^14C] inulin, with/without AT1002, for each intranasal study.

[7] = sCT 15 mg/kg intra-nasal with 10 mg/kg of AT1002, p<0.05

In the case of `OC[C@@H](O)[C@@H](O)[C@H](O)[C@H](O)CO` [Mannitol], the Papp [1] is reported as 0.686 ± 0.057 ×10⁻⁶ cm/s.

For “ZOT: 44.8 kDa protein (399 amino acids) of Vibrio cholerae that reversibly opens tight junctions”, the “enhanced transport of agents of varying molecular weights or low bioavailability” value [2] is given as “up to 30 fold”.

For SLIGRL, the “increase in the paracellular permeability of [51Cr]-EDTA” value [3] is given as 2 fold.

`CC(C)C[C@H](NC(=O)[C@H](CCCCN)NC(=O)CNC(=O)[C@H](CC(C)C)NC(=O)[C@@H](NC(=O)[C@@H]1CSSC[C@H](N)C(=O)N[C@@H](CO)C(=O)N[C@@H](CC(N)=O)C(=O)N[C@@H](CC(C)C)C(=O)N[C@@H](CO)C(=O)N[C@@H]([C@@H](C)O)C(=O)N1)C(C)C)C(=O)N[C@@H](CO)C(=O)N[C@@H](CCC(N)=O)C(=O)N[C@@H](CCC(=O)O)C(=O)N[C@@H](CC(C)C)C(=O)N[C@@H](Cc1c[nH]cn1)C(=O)N[C@@H](CCCCN)C(=O)N[C@@H](CC(C)C)C(=O)N[C@@H](CCC(N)=O)C(=O)N[C@H](C(=O)N[C@@H](Cc1ccc(O)cc1)C(=O)N1CCC[C@H]1C(=O)N[C@@H](CCCNC(=N)N)C(=O)N[C@H](C(=O)N[C@@H](CC(N)=O)C(=O)N[C@H](C(=O)NCC(=O)N[C@@H](CO)C(=O)NCC(=O)N[C@H](C(=O)N1CCC[C@H]1C(N)=O)[C@@H](C)O)[C@@H](C)O)[C@@H](C)O)[C@@H](C)O` [sCT only, Salmon calcitonin] gave a Tmax ([4]; Sprague-Dawley, rat, plasma, inhaled or intranasal, sCT 15 mg/kg intra-nasal alone (control), mean ± SEM, read-out: sCT Tmax (converted)) of 32.5 min, a Tmax ([4]; Sprague-Dawley, rat, plasma, inhaled or intranasal, sCT 15 mg/kg intra-nasal, sCT only (FIG. 7), read-out: Tmax of average plasma concentration profile of sCT (converted)) of 30 min and a Cmax ([4]; Sprague-Dawley, rat, plasma, inhaled or intranasal, sCT 15 mg/kg intra-nasal alone (control), mean ± SEM) of 1230 ± 250 ng/mL. For the same molecule, the AUC(0-t) ([4]; Sprague-Dawley, rat, plasma, inhaled or intranasal, sCT 15 mg/kg intra-nasal alone (control), mean ± SEM, n=3-5, read-out: sCT AUC0-90 min (converted)) was 997 ng·h/mL.

With H-FCIGRL-OH [AT1002, H-FCIGRL-OH] the “increase of AZT levels in plasma” value ([5]; [3H]-AZT 120 μCi/kg intranasal, AT1002 2 mg/kg co-administered, blood at 10 or 15 min, vs AZT alone, p<0.05) was “about 33%”, the “increase of saquinavir levels in plasma” value ([5]; [3H]-saquinavir 120 μCi/kg intranasal, in presence of AT1002 5 mg/kg vs absence) was “about 51%” and the “increase of plasma concentration of sCT vs sCT control” value ([4]; at 20 min, sCT 15 mg/kg intra-nasal with 10 mg/kg of AT1002, p<0.05) was 1.99 fold. The “increase in sCT AUC0-90min to sCT control” value [4, 7] was 1.66 fold, the “increase in sCT Cmax to sCT control” value [4, 7] was 1.67 fold and the “inulin AUC0-360min, increase over control” value [6] was 292%. The “inulin Cmax, increase over control” value [6] was 315%.
